The test system of data set [1] is frozen buccal tissue. The data set is described as follows: Ex vivo permeation model of octreotide with permeation enhancers (Franz diffusion cell). The text has this: The Franz diffusion cell apparatus consists of two chambers separated by a membrane of, for example, animal or human skin. The test product is applied to the membrane via the top chamber. The bottom chamber contains fluid from which samples are taken at regular intervals for analysis to determine the amount of active that has permeated the membrane at set time points.
Applicants performed an ex vivo screening of permeation enhancers of octreotide delivery. Ex vivo porcine tissue was used, with a tissue thickness 300 um, 3 mg of octreotide and a time of up to 6 hours.

Data set [2] in a line: Octreotide compatibility of permeation enhancers (solubility without precipitation).
A short description of data set [3]: Octreotide degradation on buccal tissue with microneedle application. The class given is in vitro ADME. The settings on record: 4 hours at 37 degrees C. On the procedure:
As shown in the Table below, the buccal tissue was subjected to microneedle application (10 times) and incubated with octreotide solution (2 ml, 1 mg/ml) for 4 hours at 37 degrees C.

For data set [4], the system named is buccal tissue. The data set is described as follows: HIFU as physical permeation enhancer, ex vivo permeation through full thickness tissue. The class given is in vitro ADME. As to conditions: HIFU 30 seconds (180 watts, duty cycle 5%, PRF 10 Hz), two hours. The text has this: In one example, the inventors used High Intensity Focused Ultrasound (HIFU) as physical permeation enhancer. HIFU can have mechanical, cavitational or thermal effects on the tissue depending on the Ultrasound parameters such as intensity, duty cycle, pulse repetition frequency and the exposure time. In this experiment, the buccal tissue was subjected to HIFU for 30 seconds (power of 180 watts, duty cycle 5%, PRF of 10 Hz) octreotide permeation through the tissue was monitored for two hours in the ex vivo permeation model described earlier (except using full thickness tissue which includes connective tissue of the sub-mucosa).

Data set [5] can be described thus: POC study in mini pigs, octreotide solution on buccal/sublingual mucosa after microneedles. The class given is in vivo. As to conditions: pig, blood; for AUC / Cmax / bioavailability: 12 mg. The text has this: Solutions were placed after scraping off mucin using a spatula and then treating the area with microneedles (750 um for buccal and 500 um for sublingual). Methocel (40% in water was used as a glue to attach the holder keeping the solution on to the tissue. The test material was colored so that any loss of drug during the experimental set up could be easily monitored.

Test in data set [6]: as above
The class given is in vivo. The settings on record: pig, blood, iv, 100 ug, 100 μg I.V.

The mark [7] stands for this setting: octreotide flux, enhancer 10 Wt %, frozen buccal tissue 300 um.
Setting [8] is: octreotide permeation, 10% w/w, Octreotide soluble after vigorous stirring.
Where [9] appears, read: 10% w/w, Octreotide soluble after vigorous stirring.
Where [10] appears, read: 12 mg solution with 5 wt % DDTMAB applied to disrupted buccal mucosa.
The mark [11] stands for this setting: 12 mg with 5 wt % DDTMAB applied to disrupted sublingual mucosa.

Several values for one entry are separate records, joined by “and”; a condition that tells them apart may be missing. Equal entries are not always repeated. Where two headings read alike, the source gives them in different places.

In the case of `CN1CCCC1=O` [1-Methyl 2-Pyrrolidone], the Average flux in data set [1] (pig, 5 Wt %) is reported as 0.08 ug/cm2*min.
As for `O=CC=Cc1ccccc1` [Cinnamaldehyde], the Average flux in data set [1] (pig, 1 Wt %) is on record as 0.00 ug/cm2*min; in data set [1] (pig, 3 Wt %) it was 0.00 ug/cm2*min.
Turning to `CO[C@H]1CO[C@H]2[C@@H]1OC[C@H]2OC` [Dimethyl isosorbide], in data set [1] (octreotide flux, enhancer 5 Wt %, frozen buccal tissue 300 um), the Average flux is recorded as 0.07 ug/cm2*min.
As for `CCCCCCCCCCCC[N+](C)(C)C.[Br-]` [Dodecyltrimethylammonium bromide], the permeation activity result in data set [1] (aliphatic trimethyl-ammonium bromide surfactants at 1 wt % (FIG. 5)) is reported as “most active”. Besides, in data set [2], the “Octreotide Compatibility” value is on record as “Yes” and the “compatibility with octreotide in terms of solubility without causing precipitation” value is “improved compatibility”.
Take `O=C(O)CN(CCN(CC(=O)O)CC(=O)O)CC(=O)O` [EDTA]: the “Permeation Ranking 0-1-2-3 None-Low-Med-High” value in data set [1] (pig) is 1. Besides, the Average flux in data set [1] (pig, 10 Wt %) was 0.10 ug/cm2*min.
Regarding `O=C(O)CN(CCOCCOCCN(CC(=O)O)CC(=O)O)CC(=O)O` [EGTA], the “Permeation Ranking 0-1-2-3 None-Low-Med-High” value in data set [1] stood at 0.
Take `C[C@H](CCC(=O)NCC(=O)[O-])[C@H]1CC[C@H]2[C@@H]3CC[C@@H]4C[C@H](O)CC[C@]4(C)[C@H]3C[C@H](O)[C@]12C.[Na+]` [GDC, Sodium glycodeoxycholate]: the Average flux in data set [1] (octreotide flux, enhancer 0.1 Wt %, frozen buccal tissue 300 um) is listed as 0.14 ug/cm2*min; in data set [1] (setting [7]) it was 0.85 ug/cm2*min. For the same compound, the “Permeation Ranking 0-1-2-3 None-Low-Med-High” value in data set [1] (setting [8]) was determined as 2. Further, the “Octreotide Compatibility” value in data set [2] (setting [9]) is given as “Yes”.
On to `CCCCCCCCCCCCOC(=O)C[N+](C)(C)C` [Glycine Betaine Ester C12], for which, in data set [1], the Average flux is 3.14 ug/cm2*min and the flux is reported as 3-3.5 μg/cm^2*min. In addition, the “biodegradability, quantified by analysis of glycine betaine” value (biological media (plasma, esterase solution, simulated intestinal fluid, tissue homogenate), 37 degrees C.) was “highly biodegradable”. Moreover, the “degradability in acidic environment” value (simulated gastric fluid (pepsin/low pH)) is “not degradable”.
For `CCCCCCCCCCCCCCCCOC(=O)C[N+](C)(C)C` [Glycine Betaine Ester C16], in data set [1], the Average flux was 0.69 ug/cm2*min and the flux is 3-3.5 μg/cm^2*min.
`CCCCCCCC/C=C\CCCCCCCCOC(=O)C[N+](C)(C)C` [Glycine Betaine Ester C18 (Oleyl)]: in data set [1], the Average flux is reported as 0.51 ug/cm2*min and the flux is reported as 3-3.5 μg/cm^2*min.
With `CCCCCCCCCCCCCCCC[N+](C)(C)C.[Br-]` [Hexadecyltrimethylammonium bromide], the permeation activity result in data set [1] was “most active”. In data set [1] (pig), the “Permeation Ranking 0-1-2-3 None-Low-Med-High” value was 3. In addition, the Average flux in data set [1] (pig, 1 Wt %) is reported as 1.23 ug/cm2*min. Besides, the “compatibility with octreotide in terms of solubility without causing precipitation” value in data set [2] is on record as “improved compatibility”.
Take `CCCCCC[N+](C)(C)C.[Br-]` [Hexyltrimethylammonium bromide]: in data set [1], the permeation activity entry is “not active”.
With `CCCCCCCCCCCCCCCCOP(=O)([O-])OCC[N+](C)(C)C` [Miltefosine (Hexadecyl Phosphatidyl Choline), reference compound], in data set [1], the Average flux came to 0.14 ug/cm2*min.
For `C[C@@H](O)[C@@H]1NC(=O)[C@H](CCCCN)NC(=O)[C@@H](Cc2c[nH]c3ccccc23)NC(=O)[C@H](Cc2ccccc2)NC(=O)[C@@H](NC(=O)[C@H](N)Cc2ccccc2)CSSC[C@@H](C(=O)N[C@H](CO)[C@@H](C)O)NC1=O` [Octreotide], the flux entry in data set [1] (octreotide concentration of 5 mg/ml (FIG. 4)) was “approximately 0.500 ug/cm2*min”; in data set [1] (octreotide concentration of 15-20 mg/ml (FIG. 4)), 2.0-2.5 ug/cm2*min. For the same compound, the share remaining (as a rule, the share of the starting amount still present when the sample was taken) at 4 h, 1 mg/ml in data set [3] (+ Tissue with microneedle (10 times)) worked out at 98%; in data set [3] (buccal tissue incubated with octreotide solution, + Tissue), 86%; in data set [3] (control without tissue, control, octreotide solution 2 ml, 1 mg/ml), 100%. For the same compound, the “octreotide permeated through the tissue” value in data set [4] was approximately 60 µg.
On to `CCCCCCCCN1CCCC1=O` [Octyl pyrroldone], for which the Average flux in data set [1] amounted to 0.10 ug/cm2*min.
For the compound `CCCCCCCC[N+](C)(C)C.[Br-]` [Octyltrimethylammonium bromide], the permeation activity entry in data set [1] was “not active”.
In the case of `CCCCCCCC/C=C\CCCCCCCC(=O)O` [Oleic acid], the “Permeation Ranking 0-1-2-3 None-Low-Med-High” value in data set [1] (pig) is recorded as 0. Also, in data set [1] (pig, 5 Wt %), the Average flux is 0.01 ug/cm2*min.
In the case of `Cl.NCCCNCCCCNCCCN` [Spermine HCl], the Average flux in data set [1] (pig, 10 Wt %) is 0.58 ug/cm2*min.
In the case of `CCCCCCCCCCCCCCO[C@@H]1O[C@H](CO)[C@@H](O[C@H]2O[C@H](CO)[C@@H](O)[C@H](O)[C@H]2O)[C@H](O)[C@H]1O` [TDM], in data set [1], the “Permeation Ranking 0-1-2-3 None-Low-Med-High” value worked out at 1.
Regarding `CCCCCCCCCCCCCCCC[N+](C)(C)C.[Br-]` [drawing 5], the “Avg Flux” value in data set [1] (pig, 1 wt %) is 1.31 (1 wt %) μg/cm^2*min.
On to `C[C@@H](O)[C@@H]1NC(=O)[C@H](CCCCN)NC(=O)[C@@H](Cc2c[nH]c3ccccc23)NC(=O)[C@H](Cc2ccccc2)NC(=O)[C@@H](NC(=O)[C@H](N)Cc2ccccc2)CSSC[C@@H](C(=O)N[C@H](CO)[C@@H](C)O)NC1=O` [octreotide acetate], for which, in data set [5] (setting [10]), the Tmax (commonly the time from dosing to the highest level) was 3 h; the AUC (commonly concentration integrated over time) was 0.0198 µg·h/mL; the Cmax (commonly the maximum level reached in the sampled fluid or tissue) worked out at 0.0042 µg/mL; the bioavailability (usually the share of a dose that reaches the circulation, judged against a reference dose that is usually intravenous) was determined as 1.11%. For the same compound, in data set [5] (setting [11]), the AUC amounted to 0.106 µg·h/mL, the highest level (Cmax) was 0.0256 µg/mL and the bioavailability is 5.97%. In addition, in data set [6], the AUC was 0.0148 µg·h/mL, the highest level (Cmax) was 0.031 µg/mL and the Tmax was 4 min.
For “Benzalkonium chloride [Benzalkonium chloride (BAC)]”, in data set [1], the “Permeation Ranking 0-1-2-3 None-Low-Med-High” value turned out to be 3.
On to Dimethyl-cyclodextrin, for which, in data set [1], the Average flux is given as 0.53 ug/cm2*min and the “Permeation Ranking 0-1-2-3 None-Low-Med-High” value is listed as 1.
On to Hydroxypropylcyclodextrin, for which, in data set [1], the Average flux is 0.15 ug/cm2*min.
In the case of Sodium Deoxycholate [DOC], the Average flux in data set [1] (setting [7]) is 0.49 ug/cm2*min and 0.41 ug/cm2*min. In addition, the “Permeation Ranking 0-1-2-3 None-Low-Med-High” value in data set [1] (setting [8]) was determined as 1. Further, the “Octreotide Compatibility” value in data set [2] (setting [9]) is listed as “Yes”.

(Values after patent US20190091281A1, “DELIVERY PHARMACEUTICAL COMPOSITIONS INCLUDING PERMEATION ENHANCERS” (AQUESTIVE THERAPEUTICS, INC., priority 2017, published 2019).)
